Results on four molecules are retold here after PubChem BioAssay AID2060508 (Molecular Pharmacology Branch, DTP, NCI, 2025).
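Also: spheroids exposed to compounds for seven days; 100% = DMSO vehicle control viability.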

One test concerns 454973-116-R2-J3-PDC spheroids, viability, % test/control. Kind of test: Anticancer human tumor 454973-116-R2-J3-PDC patient-derived pancreatic carcinoma cell line growth inhibition [GQUAD]. The note with it: second compound 0.0316 µM; first compound 3.16 µM; active compounds read low; spheroids with HUVEC and MSC. The method, boiled down: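 Tumor cells were grown as complex spheroids with HUVEC endothelial cells and mesenchymal stem cells as stroma. G-quadruplex stabilizers were combined with targeted agents over half-log dilutions from near the clinical Cmax, or from 10 microM.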
As for `CC1COCCN1c1cc(C2(S(C)(=N)=O)CC2)nc(-c2ccnc3[nH]ccc23)n1` (configuration not stated) + Cc1cnc(CNC(=O)c2c(=O)c3ccc(N4CCCN(C)CC4)nc3n3c2sc2ccccc23)cn1, the viability, T/C (in general, the ratio of treated to control) is 43.2%.

For `COc1ccc([C@@H](O)c2cc(-c3ncnc4cc(N5CCOCC5)ccc34)c(F)cc2Cl)nn1` + Cc1cnc(CNC(=O)c2c(=O)c3ccc(N4CCCN(C)CC4)nc3n3c2sc2ccccc23)cn1, the viability, T/C is 34%.

The test is the same for the next values; noted with them: second compound 0.0316 µM; first compound 10 µM; active compounds read low; spheroids with HUVEC and MSC.
As to `CC1COCCN1c1cc(-c2ccnn2C)c2ccnc(-c3ccn[nH]3)c2n1` (configuration not stated) + Cc1cnc(CNC(=O)c2c(=O)c3ccc(N4CCCN(C)CC4)nc3n3c2sc2ccccc23)cn1, the viability, T/C is 21.7%.

Take `CC1COCCN1c1cc(C2(O)CC3CCC(C2)O3)c2cnn(-c3ccn[nH]3)c2n1` (configuration not stated) + Cc1cnc(CNC(=O)c2c(=O)c3ccc(N4CCCN(C)CC4)nc3n3c2sc2ccccc23)cn1: the viability, T/C is 9.73%.

In the case of `CC1COCCN1c1cc(C2(S(C)(=N)=O)CC2)nc(-c2ccnc3[nH]ccc23)n1` (configuration not stated) + Cc1cnc(CNC(=O)c2c(=O)c3ccc(N4CCCN(C)CC4)nc3n3c2sc2ccccc23)cn1, the viability, T/C is 21.6%.

As to `COc1ccc([C@@H](O)c2cc(-c3ncnc4cc(N5CCOCC5)ccc34)c(F)cc2Cl)nn1` + Cc1cnc(CNC(=O)c2c(=O)c3ccc(N4CCCN(C)CC4)nc3n3c2sc2ccccc23)cn1, the viability, T/C is 33.9%.

Staying with this test, now noted: second compound 0.1 µM; first compound 0.0316 µM; active compounds read low; spheroids with HUVEC and MSC.
On to `CC1COCCN1c1cc(-c2ccnn2C)c2ccnc(-c3ccn[nH]3)c2n1` (configuration not stated) + Cc1cnc(CNC(=O)c2c(=O)c3ccc(N4CCCN(C)CC4)nc3n3c2sc2ccccc23)cn1, for which the viability, T/C is 35.7%.

With `CC1COCCN1c1cc(C2(O)CC3CCC(C2)O3)c2cnn(-c3ccn[nH]3)c2n1` (configuration not stated) + Cc1cnc(CNC(=O)c2c(=O)c3ccc(N4CCCN(C)CC4)nc3n3c2sc2ccccc23)cn1, the viability, T/C is 35%.

`CC1COCCN1c1cc(C2(S(C)(=N)=O)CC2)nc(-c2ccnc3[nH]ccc23)n1` (configuration not stated) + Cc1cnc(CNC(=O)c2c(=O)c3ccc(N4CCCN(C)CC4)nc3n3c2sc2ccccc23)cn1: the viability, T/C is 90.9%.

Regarding `COc1ccc([C@@H](O)c2cc(-c3ncnc4cc(N5CCOCC5)ccc34)c(F)cc2Cl)nn1` + Cc1cnc(CNC(=O)c2c(=O)c3ccc(N4CCCN(C)CC4)nc3n3c2sc2ccccc23)cn1, the viability, T/C is 83.5%.

The same test, now with this note: second compound 0.1 µM; first compound 0.1 µM; active compounds read low; spheroids with HUVEC and MSC.
Take `CC1COCCN1c1cc(-c2ccnn2C)c2ccnc(-c3ccn[nH]3)c2n1` (configuration not stated) + Cc1cnc(CNC(=O)c2c(=O)c3ccc(N4CCCN(C)CC4)nc3n3c2sc2ccccc23)cn1: the viability, T/C was 23.1%.

For the molecule `CC1COCCN1c1cc(C2(O)CC3CCC(C2)O3)c2cnn(-c3ccn[nH]3)c2n1` (configuration not stated) + Cc1cnc(CNC(=O)c2c(=O)c3ccc(N4CCCN(C)CC4)nc3n3c2sc2ccccc23)cn1, the viability, T/C was 22.3%.

Consider `CC1COCCN1c1cc(C2(S(C)(=N)=O)CC2)nc(-c2ccnc3[nH]ccc23)n1` (configuration not stated) + Cc1cnc(CNC(=O)c2c(=O)c3ccc(N4CCCN(C)CC4)nc3n3c2sc2ccccc23)cn1, for which the viability, T/C is 81.9%.

For `COc1ccc([C@@H](O)c2cc(-c3ncnc4cc(N5CCOCC5)ccc34)c(F)cc2Cl)nn1` + Cc1cnc(CNC(=O)c2c(=O)c3ccc(N4CCCN(C)CC4)nc3n3c2sc2ccccc23)cn1, the viability, T/C was 71.3%.

Staying with this test, now noted: second compound 0.1 µM; first compound 0.316 µM; active compounds read low; spheroids with HUVEC and MSC.
Regarding `CC1COCCN1c1cc(-c2ccnn2C)c2ccnc(-c3ccn[nH]3)c2n1` (configuration not stated) + Cc1cnc(CNC(=O)c2c(=O)c3ccc(N4CCCN(C)CC4)nc3n3c2sc2ccccc23)cn1, the viability, T/C was 18.9%.

Regarding `CC1COCCN1c1cc(C2(O)CC3CCC(C2)O3)c2cnn(-c3ccn[nH]3)c2n1` (configuration not stated) + Cc1cnc(CNC(=O)c2c(=O)c3ccc(N4CCCN(C)CC4)nc3n3c2sc2ccccc23)cn1, the viability, T/C was 19.1%.

Consider `CC1COCCN1c1cc(C2(S(C)(=N)=O)CC2)nc(-c2ccnc3[nH]ccc23)n1` (configuration not stated) + Cc1cnc(CNC(=O)c2c(=O)c3ccc(N4CCCN(C)CC4)nc3n3c2sc2ccccc23)cn1, for which the viability, T/C was 74.2%.

As for `COc1ccc([C@@H](O)c2cc(-c3ncnc4cc(N5CCOCC5)ccc34)c(F)cc2Cl)nn1` + Cc1cnc(CNC(=O)c2c(=O)c3ccc(N4CCCN(C)CC4)nc3n3c2sc2ccccc23)cn1, the viability, T/C was 46%.

Staying with this test, now noted: second compound 0.1 µM; first compound 1 µM; active compounds read low; spheroids with HUVEC and MSC.
In the case of `CC1COCCN1c1cc(-c2ccnn2C)c2ccnc(-c3ccn[nH]3)c2n1` (configuration not stated) + Cc1cnc(CNC(=O)c2c(=O)c3ccc(N4CCCN(C)CC4)nc3n3c2sc2ccccc23)cn1, the viability, T/C was 14.7%.

Regarding `CC1COCCN1c1cc(C2(O)CC3CCC(C2)O3)c2cnn(-c3ccn[nH]3)c2n1` (configuration not stated) + Cc1cnc(CNC(=O)c2c(=O)c3ccc(N4CCCN(C)CC4)nc3n3c2sc2ccccc23)cn1, the viability, T/C is 19%.

As for `CC1COCCN1c1cc(C2(S(C)(=N)=O)CC2)nc(-c2ccnc3[nH]ccc23)n1` (configuration not stated) + Cc1cnc(CNC(=O)c2c(=O)c3ccc(N4CCCN(C)CC4)nc3n3c2sc2ccccc23)cn1, the viability, T/C is 58.9%.

With `COc1ccc([C@@H](O)c2cc(-c3ncnc4cc(N5CCOCC5)ccc34)c(F)cc2Cl)nn1` + Cc1cnc(CNC(=O)c2c(=O)c3ccc(N4CCCN(C)CC4)nc3n3c2sc2ccccc23)cn1, the viability, T/C was 35.3%.

The same test, now with this note: second compound 0.1 µM; first compound 3.16 µM; active compounds read low; spheroids with HUVEC and MSC.
Turning to `CC1COCCN1c1cc(-c2ccnn2C)c2ccnc(-c3ccn[nH]3)c2n1` (configuration not stated) + Cc1cnc(CNC(=O)c2c(=O)c3ccc(N4CCCN(C)CC4)nc3n3c2sc2ccccc23)cn1, the viability, T/C is 18.3%.

On to `CC1COCCN1c1cc(C2(O)CC3CCC(C2)O3)c2cnn(-c3ccn[nH]3)c2n1` (configuration not stated) + Cc1cnc(CNC(=O)c2c(=O)c3ccc(N4CCCN(C)CC4)nc3n3c2sc2ccccc23)cn1, for which the viability, T/C was 17.7%.

On to `CC1COCCN1c1cc(C2(S(C)(=N)=O)CC2)nc(-c2ccnc3[nH]ccc23)n1` (configuration not stated) + Cc1cnc(CNC(=O)c2c(=O)c3ccc(N4CCCN(C)CC4)nc3n3c2sc2ccccc23)cn1, for which the viability, T/C is 33%.

For `COc1ccc([C@@H](O)c2cc(-c3ncnc4cc(N5CCOCC5)ccc34)c(F)cc2Cl)nn1` + Cc1cnc(CNC(=O)c2c(=O)c3ccc(N4CCCN(C)CC4)nc3n3c2sc2ccccc23)cn1, the viability, T/C was 32.1%.

Staying with this test, now noted: second compound 0.1 µM; first compound 10 µM; active compounds read low; spheroids with HUVEC and MSC.
Regarding `CC1COCCN1c1cc(-c2ccnn2C)c2ccnc(-c3ccn[nH]3)c2n1` (configuration not stated) + Cc1cnc(CNC(=O)c2c(=O)c3ccc(N4CCCN(C)CC4)nc3n3c2sc2ccccc23)cn1, the viability, T/C was 23.3%.

As to `CC1COCCN1c1cc(C2(O)CC3CCC(C2)O3)c2cnn(-c3ccn[nH]3)c2n1` (configuration not stated) + Cc1cnc(CNC(=O)c2c(=O)c3ccc(N4CCCN(C)CC4)nc3n3c2sc2ccccc23)cn1, the viability, T/C is 12.7%.

In the case of `CC1COCCN1c1cc(C2(S(C)(=N)=O)CC2)nc(-c2ccnc3[nH]ccc23)n1` (configuration not stated) + Cc1cnc(CNC(=O)c2c(=O)c3ccc(N4CCCN(C)CC4)nc3n3c2sc2ccccc23)cn1, the viability, T/C was 23.5%.

For the molecule `COc1ccc([C@@H](O)c2cc(-c3ncnc4cc(N5CCOCC5)ccc34)c(F)cc2Cl)nn1` + Cc1cnc(CNC(=O)c2c(=O)c3ccc(N4CCCN(C)CC4)nc3n3c2sc2ccccc23)cn1, the viability, T/C was 30.1%.

Staying with this test, now noted: second compound 0.316 µM; first compound 0.0316 µM; active compounds read low; spheroids with HUVEC and MSC.
For `CC1COCCN1c1cc(-c2ccnn2C)c2ccnc(-c3ccn[nH]3)c2n1` (configuration not stated) + Cc1cnc(CNC(=O)c2c(=O)c3ccc(N4CCCN(C)CC4)nc3n3c2sc2ccccc23)cn1, the viability, T/C was 33.7%.

On to `CC1COCCN1c1cc(C2(O)CC3CCC(C2)O3)c2cnn(-c3ccn[nH]3)c2n1` (configuration not stated) + Cc1cnc(CNC(=O)c2c(=O)c3ccc(N4CCCN(C)CC4)nc3n3c2sc2ccccc23)cn1, for which the viability, T/C was 29.6%.

In the case of `CC1COCCN1c1cc(C2(S(C)(=N)=O)CC2)nc(-c2ccnc3[nH]ccc23)n1` (configuration not stated) + Cc1cnc(CNC(=O)c2c(=O)c3ccc(N4CCCN(C)CC4)nc3n3c2sc2ccccc23)cn1, the viability, T/C was 70.8%.

Take `COc1ccc([C@@H](O)c2cc(-c3ncnc4cc(N5CCOCC5)ccc34)c(F)cc2Cl)nn1` + Cc1cnc(CNC(=O)c2c(=O)c3ccc(N4CCCN(C)CC4)nc3n3c2sc2ccccc23)cn1: the viability, T/C was 70.8%.

Still in this test, the particulars now being: second compound 0.316 µM; first compound 0.1 µM; active compounds read low; spheroids with HUVEC and MSC.
Turning to `CC1COCCN1c1cc(-c2ccnn2C)c2ccnc(-c3ccn[nH]3)c2n1` (configuration not stated) + Cc1cnc(CNC(=O)c2c(=O)c3ccc(N4CCCN(C)CC4)nc3n3c2sc2ccccc23)cn1, the viability, T/C is 20%.

Take `CC1COCCN1c1cc(C2(O)CC3CCC(C2)O3)c2cnn(-c3ccn[nH]3)c2n1` (configuration not stated) + Cc1cnc(CNC(=O)c2c(=O)c3ccc(N4CCCN(C)CC4)nc3n3c2sc2ccccc23)cn1: the viability, T/C is 25.4%.

`CC1COCCN1c1cc(C2(S(C)(=N)=O)CC2)nc(-c2ccnc3[nH]ccc23)n1` (configuration not stated) + Cc1cnc(CNC(=O)c2c(=O)c3ccc(N4CCCN(C)CC4)nc3n3c2sc2ccccc23)cn1: the viability, T/C is 73%.

For `COc1ccc([C@@H](O)c2cc(-c3ncnc4cc(N5CCOCC5)ccc34)c(F)cc2Cl)nn1` + Cc1cnc(CNC(=O)c2c(=O)c3ccc(N4CCCN(C)CC4)nc3n3c2sc2ccccc23)cn1, the viability, T/C was 66.3%.

The test is the same for the next values; noted with them: second compound 0.316 µM; first compound 0.316 µM; active compounds read low; spheroids with HUVEC and MSC.
With `CC1COCCN1c1cc(-c2ccnn2C)c2ccnc(-c3ccn[nH]3)c2n1` (configuration not stated) + Cc1cnc(CNC(=O)c2c(=O)c3ccc(N4CCCN(C)CC4)nc3n3c2sc2ccccc23)cn1, the viability, T/C was 18.6%.

`CC1COCCN1c1cc(C2(O)CC3CCC(C2)O3)c2cnn(-c3ccn[nH]3)c2n1` (configuration not stated) + Cc1cnc(CNC(=O)c2c(=O)c3ccc(N4CCCN(C)CC4)nc3n3c2sc2ccccc23)cn1: the viability, T/C was 24.9%.

For the molecule `CC1COCCN1c1cc(C2(S(C)(=N)=O)CC2)nc(-c2ccnc3[nH]ccc23)n1` (configuration not stated) + Cc1cnc(CNC(=O)c2c(=O)c3ccc(N4CCCN(C)CC4)nc3n3c2sc2ccccc23)cn1, the viability, T/C was 64.6%.

Take `COc1ccc([C@@H](O)c2cc(-c3ncnc4cc(N5CCOCC5)ccc34)c(F)cc2Cl)nn1` + Cc1cnc(CNC(=O)c2c(=O)c3ccc(N4CCCN(C)CC4)nc3n3c2sc2ccccc23)cn1: the viability, T/C is 49.6%.
